Experimental data published in US20070021434A1, “NON-NUCLEOSIDE ANTI-HEPACIVIRUS AGENTS AND USES THEREOF” (Migenix Inc., priority 2005, published 2007).

These compounds were tested against HCV RdRp (NS5B) (UniProt P26663).
HCV RdRp (NS5B), sequence (P26663 whole entry, looked up): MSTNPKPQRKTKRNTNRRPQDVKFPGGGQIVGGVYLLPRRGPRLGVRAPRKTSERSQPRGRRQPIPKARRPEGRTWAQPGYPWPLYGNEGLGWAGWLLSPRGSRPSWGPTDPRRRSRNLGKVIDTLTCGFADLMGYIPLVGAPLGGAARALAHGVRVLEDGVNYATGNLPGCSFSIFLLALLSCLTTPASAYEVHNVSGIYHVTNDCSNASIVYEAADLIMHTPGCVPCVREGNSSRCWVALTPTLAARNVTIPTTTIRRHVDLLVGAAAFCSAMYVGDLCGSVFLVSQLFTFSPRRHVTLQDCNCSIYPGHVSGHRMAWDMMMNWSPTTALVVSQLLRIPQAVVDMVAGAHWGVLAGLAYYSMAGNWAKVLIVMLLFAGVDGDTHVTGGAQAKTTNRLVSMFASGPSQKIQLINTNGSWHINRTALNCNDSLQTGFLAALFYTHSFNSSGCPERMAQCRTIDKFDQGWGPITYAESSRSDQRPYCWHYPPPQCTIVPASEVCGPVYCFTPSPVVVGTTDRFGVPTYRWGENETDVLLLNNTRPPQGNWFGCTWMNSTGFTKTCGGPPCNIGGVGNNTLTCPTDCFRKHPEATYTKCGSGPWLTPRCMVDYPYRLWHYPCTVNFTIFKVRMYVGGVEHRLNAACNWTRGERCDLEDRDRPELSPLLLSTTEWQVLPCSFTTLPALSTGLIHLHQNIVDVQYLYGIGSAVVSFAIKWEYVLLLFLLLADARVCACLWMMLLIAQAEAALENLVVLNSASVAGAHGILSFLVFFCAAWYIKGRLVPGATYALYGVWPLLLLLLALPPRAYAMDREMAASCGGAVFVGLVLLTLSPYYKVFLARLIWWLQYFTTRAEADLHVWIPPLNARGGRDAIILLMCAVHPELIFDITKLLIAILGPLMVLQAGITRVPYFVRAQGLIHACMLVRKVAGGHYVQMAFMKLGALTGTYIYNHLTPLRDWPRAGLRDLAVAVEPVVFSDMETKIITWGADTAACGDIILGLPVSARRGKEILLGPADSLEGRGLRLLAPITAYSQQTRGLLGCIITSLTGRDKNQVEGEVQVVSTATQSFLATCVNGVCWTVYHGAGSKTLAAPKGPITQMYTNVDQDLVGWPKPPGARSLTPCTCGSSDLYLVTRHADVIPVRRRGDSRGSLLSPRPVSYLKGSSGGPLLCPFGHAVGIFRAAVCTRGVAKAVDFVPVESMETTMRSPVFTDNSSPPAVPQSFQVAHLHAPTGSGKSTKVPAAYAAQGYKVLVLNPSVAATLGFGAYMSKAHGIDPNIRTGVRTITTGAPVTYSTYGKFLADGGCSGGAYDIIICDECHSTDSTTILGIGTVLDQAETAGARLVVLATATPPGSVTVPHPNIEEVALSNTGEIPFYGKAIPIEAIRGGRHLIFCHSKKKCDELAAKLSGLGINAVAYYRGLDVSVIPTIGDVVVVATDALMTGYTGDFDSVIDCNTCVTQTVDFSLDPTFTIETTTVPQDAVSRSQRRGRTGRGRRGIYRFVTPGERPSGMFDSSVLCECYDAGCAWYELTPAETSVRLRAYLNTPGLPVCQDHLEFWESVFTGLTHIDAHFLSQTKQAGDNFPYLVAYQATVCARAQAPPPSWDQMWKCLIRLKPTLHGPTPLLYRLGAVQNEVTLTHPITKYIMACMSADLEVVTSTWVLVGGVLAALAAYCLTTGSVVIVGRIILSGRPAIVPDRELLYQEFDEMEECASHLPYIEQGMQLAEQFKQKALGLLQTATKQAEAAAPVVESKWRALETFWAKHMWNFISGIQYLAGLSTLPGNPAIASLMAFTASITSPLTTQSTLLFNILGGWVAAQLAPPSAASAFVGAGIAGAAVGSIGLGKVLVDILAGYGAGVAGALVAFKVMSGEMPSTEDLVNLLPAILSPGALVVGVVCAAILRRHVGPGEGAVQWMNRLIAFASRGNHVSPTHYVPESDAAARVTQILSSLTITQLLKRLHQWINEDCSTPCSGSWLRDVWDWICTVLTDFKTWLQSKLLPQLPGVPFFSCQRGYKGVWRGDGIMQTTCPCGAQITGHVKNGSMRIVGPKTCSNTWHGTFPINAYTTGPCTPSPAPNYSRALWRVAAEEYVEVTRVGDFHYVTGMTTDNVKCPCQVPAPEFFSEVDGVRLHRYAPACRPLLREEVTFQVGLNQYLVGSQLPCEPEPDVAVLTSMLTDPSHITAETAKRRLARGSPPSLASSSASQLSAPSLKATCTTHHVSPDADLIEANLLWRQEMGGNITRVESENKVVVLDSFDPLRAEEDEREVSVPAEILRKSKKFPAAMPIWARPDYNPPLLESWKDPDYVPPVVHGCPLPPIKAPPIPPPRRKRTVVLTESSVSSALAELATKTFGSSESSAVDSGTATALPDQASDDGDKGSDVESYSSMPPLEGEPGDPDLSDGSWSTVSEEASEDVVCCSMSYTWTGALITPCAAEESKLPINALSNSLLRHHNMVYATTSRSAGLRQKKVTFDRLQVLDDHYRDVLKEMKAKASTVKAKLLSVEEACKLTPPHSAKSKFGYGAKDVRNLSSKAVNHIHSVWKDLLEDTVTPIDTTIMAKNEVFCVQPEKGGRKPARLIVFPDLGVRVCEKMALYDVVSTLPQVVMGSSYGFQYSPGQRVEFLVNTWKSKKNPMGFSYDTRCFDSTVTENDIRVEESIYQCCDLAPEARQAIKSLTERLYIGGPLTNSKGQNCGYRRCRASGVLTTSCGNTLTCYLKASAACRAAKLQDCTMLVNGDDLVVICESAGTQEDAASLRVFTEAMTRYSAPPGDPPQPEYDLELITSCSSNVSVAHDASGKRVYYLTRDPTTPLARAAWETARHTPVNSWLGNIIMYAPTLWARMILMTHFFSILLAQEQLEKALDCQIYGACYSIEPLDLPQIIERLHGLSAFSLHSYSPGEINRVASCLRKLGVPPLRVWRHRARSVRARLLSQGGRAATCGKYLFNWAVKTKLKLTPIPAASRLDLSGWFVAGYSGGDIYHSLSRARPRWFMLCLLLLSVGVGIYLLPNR
Type: biochemical, hepatitis C virus
Cc1ccc(NC(=O)C(CCCCN)NC(=O)OCC2c3ccccc3-c3ccccc32)cc1 [Compound 36, (R)-(5-AMINO-1-P-TOLYLCARBAMOYL-PENTYL)-CARBAMIC ACID 9H-FLUOREN-9-YLMETHYL ESTER] was tested, and the IC50 was 10 to 50 µM.
For Cc1ccc(NC(=O)[C@H](CCCCN)NC(=O)Nc2ccc(OCc3ccc(Cl)cc3Cl)cc2)cc1 [Compound 274, (S)-6-AMINO-2-{3-[4-(2,4-DICHLORO-BENZYLOXY)-PHENYL]-UREIDO}-HEXANOIC ACID P-TOLYLAMIDE], the IC50 was < 10 µM.
In the case of COC(=O)[C@H](Cc1c[nH]c2ccccc12)NC(=O)C(CCCCN)NC(=O)OCC1c2ccccc2-c2ccccc21 (stereo partly drawn) [Compound 58, (S)-2-[6-AMINO-2-((9H-FLUOREN-9-YLMETHOXYCARBONYL)AMINO)-HEXANOYL-(R)-AMINO]-3-(1H-INDOL-3-YL)-PROPIONIC ACID METHYL ESTER], the IC50 is reported as > 50 µM.
Cc1ccc(NC(=O)C(CO)NC(=O)OCC2c3ccccc3-c3ccccc32)cc1 [Compound 375, (R)-(2-HYDROXY-1-P-TOLYLCARBAMOYL-ETHYL)-CARBAMIC ACID 9H-FLUOREN-9-YLMETHYL ESTER] was tested, and the IC50 was > 50 µM.
NCCCC[C@H](NC(=O)Nc1ccc(OCc2ccccc2)cc1)C(=O)Nc1nc2ccccc2s1 [Compound 303, (S)-6-AMINO-2-[3-(4-BENZYLOXY-PHENYL)-UREIDO]-HEXANOIC ACID BENZOTHIAZOL-2-YLAMIDE] was tested, and the IC50 was > 50 µM.
O=C(CC1CNCCN1C(=O)NCc1ccccc1)Nc1ccc(C2CCCCC2)cc1 (stereo not drawn) [Compound 158, 2-[(4-CYCLOHEXYL-PHENYLCARBAMOYL)-METHYL]-PIPERAZINE-1-CARBOXYLIC ACID BENZYLAMIDE] was tested, and the IC50 was 10 to 50 µM.
NCCCC[C@H](NC(=O)Nc1ccc(OCc2ccccc2)cc1)C(=O)NCc1ccco1 [Compound 302, (S)-6-AMINO-2-[3-(4-BENZYLOXY-PHENYL)-UREIDO]-HEXANOIC ACID (FURAN-2-YLMETHYL)-AMIDE] was tested, and the IC50 was > 50 µM.
In the case of NCCCC[C@@H](NC(=O)NC1c2ccccc2-c2ccccc21)C(=O)Nc1ccc(C2CCCCC2)cc1 [Compound 195, (R)-6-AMINO-2-[3-(9H-FLUOREN-9-YL)-UREIDO]-HEXANOIC ACID (4-CYCLOHEXYL-PHENYL)-AMIDE], the IC50 is reported as < 10 µM.
For Cc1ccc(NC(=O)NC(CCCCN)C(=O)Nc2ccc(C)cc2)cc1 [Compound 135, (S)-6-AMINO-2-(3-P-TOLYL-UREIDO)-HEXANOIC ACID P-TOLYLAMIDE], the IC50 was > 50 µM.
NCCCC[C@H](NC(=O)Cn1cnc2c(NC(=O)c3ccccc3)ncnc21)C(=O)Nc1ccc(CN(C(=O)c2ccco2)C2CCCCC2)cc1 [Compound 46, (S)-FURAN-2-CARBOXYLIC ACID (4-{6-AMINO-2-[2-(6-BENZOYLAMINO-PURIN-9-YL)-ACETYLAMINO]-HEXANOYLAMINO}-BENZYL)-CYCLOHEXYL-AMIDE] was tested, and the IC50 was 10 to 50 µM.
In the case of CCOC(=O)c1ccc(NC(=O)NC(CCCCN)C(=O)Nc2ccc(C)cc2)cc1 [Compound 245, (S)-4-[3-(5-AMINO-1-P-TOLYLCARBAMOYL-PENTYL)-UREIDO]-BENZOIC ACID ETHYL ESTER], the IC50 is reported as > 50 µM.
In the case of NCc1ccc(CNC(=O)[C@@H](NC(=O)OCC2c3ccccc3-c3ccccc32)c2ccccc2)cc1 [Compound 314, (S)-[(4-AMINOMETHYL-BENZYLCARBAMOYL)-PHENYL-METHYL]-CARBAMIC ACID 9H-FLUOREN-9-YLMETHYL ESTER], the IC50 is reported as 10 to 50 µM.
In the case of NCCC(=O)Nc1ccccc1NC(=O)CNC(=O)OCC1c2ccccc2-c2ccccc21 [Compound 312, {[2-(3-AMINO-PROPIONYLAMINO)-PHENYLCARBAMOYL]-METHYL}-CARBAMIC ACID 9H-FLUOREN-9-YLMETHYL ESTER], the IC50 is reported as > 50 µM.
In the case of Cc1ccc(NC(=O)C(CCCCN)NC(=O)Nc2cccc(-c3nc4ccccc4o3)c2)cc1 [Compound 271, (S)-6-AMINO-2-[3-(3-BENZOOXAZOL-2-YL-PHENYL)-UREIDO]-HEXANOIC ACID P-TOLYLAMIDE], the IC50 is reported as < 10 µM.
Cc1ccc(NC(=O)C(CCCCN)NC(=O)COc2cccc(C(F)(F)F)c2)cc1 [Compound 332, (S)-6-AMINO-2-[2-(3-TRIFLUOROMETHYL-PHENOXY)-ACETYLAMINO]-HEXANOIC ACID P-TOLYLAMIDE] was tested, and the IC50 was > 50 µM.
CC(C)(C)c1ccc(NC(=O)[C@H](Cc2ccc(CN)cc2)NC(=O)Nc2ccc(OCc3ccccc3)cc2)cc1 [Compound 174, (S)-3-(4-AMINOMETHYL-PHENYL)-2-[3-(4-BENZYLOXY-PHENYL)-UREIDO]-N-(4-TERT-BUTYL-PHENYL)-PROPIONAMIDE] was tested, and the IC50 was < 10 µM.
Cc1ccc(NC(=O)[C@@H](CCCCN)NC(=O)NCc2ccc(Cl)c(Cl)c2)cc1 [Compound 170, (R)-6-AMINO-2-[3-(3,4-DICHLORO-BENZYL)-UREIDO]-HEXANOIC ACID P-TOLYLAMIDE] was tested, and the IC50 was > 50 µM.
Cc1ccc(NC(=O)[C@H](CCCCN)NC(=O)Nc2ccc(OCc3cccc([N+](=O)[O-])c3)cc2)cc1 [Compound 275, (S)-6-AMINO-2-{3-[4-(3-NITRO-BENZYLOXY)-PHENYL]-UREIDO}-HEXANOIC ACID P-TOLYLAMIDE] was tested, and the IC50 was 10 to 50 µM.
With COc1cccc(CNCC(=O)N[C@@H](CCCCN)C(=O)Nc2ccc(C)cc2)c1 [Compound 342, (S)-6-AMINO-2-[2-(3-METHOXY-BENZYLAMINO)-ACETYLAMINO]-HEXANOIC ACID P-TOLYLAMIDE] the IC50 was > 50 µM.
For C[C@@H](N)C(=O)Nc1ccc(CN(C(=O)c2ccco2)C2CCCCC2)cc1 [Compound 13, (R)-FURAN-2-CARBOXYLIC ACID [4-(2-AMINO-PROPIONYLAMINO)-BENZYL]-CYCLOHEXYL-AMIDE], the IC50 was > 50 µM.
In the case of Cc1ccc(NC(=O)[C@H](CCCCN)NC(=O)Nc2cccc(Br)c2)cc1 [Compound 118, (S)-6-AMINO-2-[3-(3-BROMO-PHENYL)-UREIDO]-HEXANOIC ACID P-TOLYLAMIDE], the IC50 is reported as > 50 µM.
Cc1ccc(NC(=O)[C@H](CCCCN)NS(=O)(=O)c2ccc(Cl)cc2Cl)cc1 [Compound 393, (S)-6-AMINO-2-(2,4-DICHLORO-BENZENESULFONYLAMINO)-HEXANOIC ACID P-TOLYLAMIDE] was tested, and the IC50 was > 50 µM.
With Cc1ccc(NC(=O)C(CCCCN)NC(=O)CNCc2ccccc2C)cc1 [Compound 338, (S)-6-AMINO-2-[2-(2-METHYL-BENZYLAMINO)-ACETYLAMINO]-HEXANOIC ACID P-TOLYLAMIDE] the IC50 was > 50 µM.
CN1CCN(C(=O)[C@H](CCCCN)NC(=O)Nc2ccc(OCc3ccccc3)cc2)CC1 [Compound 289, (S)-1-[5-AMINO-1-(4-METHYL-PIPERAZINE-1-CARBONYL)-PENTYL]-3-(4-BENZYLOXY-PHENYL)-UREA] was tested, and the IC50 was > 50 µM.
With O=C(Nc1ccc(C2CCCCC2)cc1)C1CNCCN1C(=O)OCC1c2ccccc2-c2ccccc21 (racemic) [Compound 156, (+/−)-2-(4-CYCLOHEXYL-PHENYLCARBAMOYL)-PIPERAZINE-1-CARBOXYLIC ACID 9H-FLUOREN-9-YLMETHYL ESTER] the IC50 was > 50 µM.
NCCCC[C@H](NC(=O)Nc1ccc(OCc2ccccc2)cc1)C(=O)N1CCOCC1 [Compound 318, (S)-l -[5-AMINO-1-(MORPHOLINE-4-CARBONYL)-PENTYL]-3-(4-BENZYLOXY-PHENYL)-UREA] was tested, and the IC50 was 10 to 50 µM.
With Cc1ccc(NC(=O)C(CCCCN)NC(=O)c2ccc3c4c(cccc24)CC3)cc1 [Compound 67, (S)-ACENAPHTHENE-5-CARBOXYLIC ACID (5-AMINO-1-P-TOLYLCARBAMOYL-PENTYL)-AMIDE] the IC50 was > 50 µM.
In the case of CCN(CC)c1ccc(NC(=O)[C@H](CCCCN)NC(=O)OCC2c3ccccc3-c3ccccc32)cc1 [Compound 106, (S)-[5-AMINO-1-(4-DIETHYLAMINO-PHENYLCARBAMOYL)-PENTYL]-CARBAMIC ACID 9H-FLUOREN-9-YLMETHYL ESTER], the IC50 is reported as > 50 µM.
In the case of Cc1ccc(NC(=O)C(CCCCN)NC(=O)NC(C)c2cccc3ccccc23)cc1 [Compound 96, (R,S)-6-AMINO-2-[3-(1-NAPHTHALEN-1-YL-ETHYL)-UREIDO]-HEXANOIC ACID P-TOLYLAMIDE], the IC50 is reported as > 50 µM.
CC(=O)Nc1cccc(NC(=O)[C@H](CCCCN)NC(=O)OCC2c3ccccc3-c3ccccc32)c1 [Compound 231, (S)-[1-(3-ACETYLAMINO-PHENYLCARBAMOYL)-5-AMINO-PENTYL]-CARBAMIC ACID 9H-FLUOREN-9-YLMETHYL ESTER] was tested, and the IC50 was > 50 µM.
Cc1ccc(NC(=O)C(NC(=O)OCC2c3ccccc3-c3ccccc32)C(C)O)cc1 [Compound 377, (2+/−,3R)-(2-HYDROXY-1-P-TOLYLCARBAMOYL-PROPYL)-CARBAMIC ACID 9H-FLUOREN-9-YLMETHYL ESTER] was tested, and the IC50 was > 50 µM.
Compound NCCCC[C@H](NC(=O)OCC1c2ccccc2-c2ccccc21)C(=O)N(Cc1ccccc1)C1CCCCC1 [Compound 33, (S)-[5-AMINO-1-(BENZYL-CYCLOHEXYL-CARBAMOYL)-PENTYL]-CARBAMIC ACID 9H-FLUOREN-9-YLMETHYL ESTER] has an IC50 of 10 to 50 µM.
In the case of CC(C)(NC(=O)OCC1c2ccccc2-c2ccccc21)C(=O)Nc1ccc(C=CC(=O)O)cc1 [Compound 39, 3-{4-[2-((9H-FLUOREN-9-YLMETHOXYCARBONYL)AMINO)-2-METHYL-PROPIONYLAMINO]-PHENYL}-ACRYLIC ACID], the IC50 is reported as > 50 µM.
In the case of Cc1ccc(NC(=O)C(CCCCN)NC(=O)Nc2ccccc2-c2ccccc2)cc1 [Compound 73, (S)-6-AMINO-2-(3-BIPHENYL-2-YL-UREIDO)-HEXANOIC ACID P-TOLYLAMIDE], the IC50 is reported as > 50 µM.
Cc1ccc(NC(=O)[C@H](CCCCN)NC(=O)Nc2cccc(Oc3ccccc3)c2)cc1 [Compound 98, (S)-6-AMINO-2-[3-(3-PHENOXY-PHENYL)-UREIDO]-HEXANOIC ACID P-TOLYLAMIDE] was tested, and the IC50 was > 50 µM.
With Cc1ccc(NC(=O)[C@H](CCCCN)NC(=O)CNc2cccc(Cl)c2)cc1 [Compound 362, (S)-6-AMINO-2-[2-(3-CHLORO-PHENYLAMINO)-ACETYLAMINO]-HEXANOIC ACID P-TOLYLAMIDE] the IC50 was > 50 µM.
NCc1ccc(NC(=O)C(NC(=O)Nc2ccc(OCc3ccccc3)cc2)c2ccccc2)cc1 [Compound 305, (S)-NR-(4-AMINOMETHYL-PHENYL)-2-[3-(4-BENZYLOXY-PHENYL)-UREIDO]-2-PHENYL-ACETAMIDE] was tested, and the IC50 was < 10 µM.
In the case of Cc1ccc(NC(=O)[C@H](CCCCN)NC(=O)CNCc2cccc(F)c2)cc1 [Compound 345, (S)-6-AMINO-2-[2-(3-FLUORO-BENZYLAMINO)-ACETYLAMINO]-HEXANOIC ACID P-TOLYLAMIDE], the IC50 is reported as > 50 µM.
CCOC(=O)C=Cc1ccc(NC(=O)[C@H](CCCCN)NC(=O)OCC2c3ccccc3-c3ccccc32)cc1 [Compound 59, (S)-3-{4-[6-AMINO-2-((9H-FLUOREN-9-YLMETHOXYCARBONYL)AMINO)-HEXANOYLAMINO]PHENYL}-ACRYLIC ACID ETHYL ESTER] gave an IC50 of 10 to 50 µM.
